Results from patent US10988524B2, “Modified relaxin B chain peptides and their therapeutic use” (priority 2018, dated 2021).
Where “and” joins values, the source holds several entries; their conditions need not be identical. Equal entries are not always repeated. Non-standard residues stand in square brackets, D forms with d. Residues, ends and D or L forms follow the SMILES beside them. αMeK = C[C@](N)(CCCCN)C(=O)O; Nle = CCCC[C@H](N)C(=O)O; Aib = CC(C)(N)C(=O)O

Molecular target: T1, RXFP1 (Homo sapiens, UniProt Q9HBX9)
T1 sequence (Q9HBX9 1-757): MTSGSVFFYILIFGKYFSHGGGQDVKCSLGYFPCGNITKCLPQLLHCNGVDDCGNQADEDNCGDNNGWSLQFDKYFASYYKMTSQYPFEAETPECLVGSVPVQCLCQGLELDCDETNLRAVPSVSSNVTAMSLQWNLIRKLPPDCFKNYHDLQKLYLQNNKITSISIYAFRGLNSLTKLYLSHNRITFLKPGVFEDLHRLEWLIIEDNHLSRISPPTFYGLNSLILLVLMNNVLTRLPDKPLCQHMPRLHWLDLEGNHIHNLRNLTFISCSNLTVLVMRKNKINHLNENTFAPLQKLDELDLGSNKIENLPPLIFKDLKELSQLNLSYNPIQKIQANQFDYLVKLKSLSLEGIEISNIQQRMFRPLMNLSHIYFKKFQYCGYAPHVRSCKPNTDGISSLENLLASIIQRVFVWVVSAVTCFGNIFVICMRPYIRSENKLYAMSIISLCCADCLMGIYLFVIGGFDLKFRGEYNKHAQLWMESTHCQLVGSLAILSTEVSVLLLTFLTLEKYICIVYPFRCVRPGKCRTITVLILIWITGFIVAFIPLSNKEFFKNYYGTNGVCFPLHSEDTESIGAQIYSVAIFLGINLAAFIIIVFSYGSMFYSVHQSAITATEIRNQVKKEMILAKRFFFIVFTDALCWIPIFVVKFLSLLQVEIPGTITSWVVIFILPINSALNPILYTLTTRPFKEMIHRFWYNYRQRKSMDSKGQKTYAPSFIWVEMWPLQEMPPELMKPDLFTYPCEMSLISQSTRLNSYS
Experiment: OVCAR5 cAMP assay (RXFP1 agonist activity, HTRF)
Settings: for Emax: OVCAR-5, read-out: cAMP assay in OVCAR 5 cells Emax, maximal intracellular cAMP relative to H2-relaxin in the same test occasion; for EC50: cAMP assay in OVCAR 5 cells EC50 (nM), OVCAR5 cells expressing endogenous RXFP1, cAMP by HTRF, 30 min at 37° C., 1 mM IBMX

CCCC[C@H](NC(=O)CNC(=O)[C@H](CCC(=O)O)NC(=O)C(C)(C)NC(=O)C(C)(C)NC(=O)[C@@H](NC(=O)[C@H](C)NC(=O)[C@H](C)NC(=O)[C@H](CCCNC(=N)N)NC(=O)[C@@H](NC(=O)[C@H](CCCCN)NC(=O)[C@H](CCC(=O)O)NC(=O)[C@H](CCCNC(=N)N)NC(=O)CNC(=O)[C@H](CCC(=O)O)NC(=O)[C@H](CC(C)C)NC(C)=O)C(C)C)[C@@H](C)CC)C(=O)N[C@@H](CO)C(=O)N[C@H](C(=O)N[C@@H](Cc1c[nH]c2ccccc12)C(=O)N[C@@H](CO)C(=O)NC(C)(C)C(=O)N[C@@H](CCCNC(=N)N)C(=O)N[C@@H](CCCCN)C(=O)N[C@@H](CCCCN)C(N)=O)[C@@H](C)O [compound 17] (Ac-LEGREKVRAAI[Aib][Aib]EG[Nle]STWS[Aib]RKK-NH2)
Emax: 90%

CC[C@H](C)[C@H](NC(=O)[C@H](CCC(N)=O)NC(=O)[C@H](C)NC(=O)[C@H](CCCNC(=N)N)NC(=O)[C@@H](NC(=O)[C@H](CCCCN)NC(=O)[C@H](CCC(=O)O)NC(=O)[C@H](CCCNC(=N)N)NC(=O)CNC(=O)[C@H](CCC(=O)O)NC(=O)[C@H](CC(C)C)NC(C)=O)C(C)C)C(=O)NC(C)(C)C(=O)NC(C)(C)C(=O)N[C@@H](CCC(=O)O)C(=O)NCC(=O)N[C@@H](CCSC)C(=O)N[C@@H](CO)C(=O)N[C@@H](CCCCN)C(=O)N[C@@H](Cc1c[nH]c2ccccc12)C(=O)N[C@@H](CO)C(=O)NC(C)(C)C(=O)N[C@@H](CCCNC(=N)N)C(=O)N[C@@H](CCCCN)C(N)=O [compound 18] (Ac-LEGREKVRAQI[Aib][Aib]EGMSKWS[Aib]RK-NH2)
Emax: 104%

CCCC[C@H](NC(=O)CNC(=O)[C@H](CCC(=O)O)NC(=O)C(C)(C)NC(=O)C(C)(C)NC(=O)[C@@H](NC(=O)C(C)(C)NC(=O)[C@H](C)NC(=O)[C@H](CCCNC(=N)N)NC(=O)[C@@H](NC(=O)[C@H](CCCCN)NC(=O)[C@H](CCC(=O)O)NC(=O)[C@H](CCCNC(=N)N)NC(=O)CNC(=O)[C@H](CCC(=O)O)NC(=O)[C@H](CC(C)C)NC(C)=O)C(C)C)[C@@H](C)CC)C(=O)N[C@@H](CO)C(=O)N[C@H](C(=O)N[C@@H](Cc1c[nH]c2ccccc12)C(=O)N[C@@H](CO)C(=O)N[C@@H](CCCCN)C(=O)N[C@@H](CCCNC(=N)N)C(=O)N[C@@H](CCCCN)C(=O)N[C@@H](CCCCN)C(N)=O)[C@@H](C)O [compound 19] (Ac-LEGREKVRA[Aib]I[Aib][Aib]EG[Nle]STWSKRKK-NH2)
Emax: 97%

CCCC[C@H](NC(=O)CNC(=O)[C@H](CCC(=O)O)NC(=O)C(C)(C)NC(=O)C(C)(C)NC(=O)[C@@H](NC(=O)C(C)(C)NC(=O)[C@H](C)NC(=O)[C@H](CCCNC(=N)N)NC(=O)[C@@H](NC(=O)[C@H](CCCCN)NC(=O)[C@H](CCC(=O)O)NC(=O)[C@H](CCCNC(=N)N)NC(=O)CNC(=O)[C@H](CCC(=O)O)NC(=O)[C@H](CC(C)C)NC(C)=O)C(C)C)[C@@H](C)CC)C(=O)N[C@@H](CO)C(=O)N[C@H](C(=O)N[C@@H](Cc1c[nH]c2ccccc12)C(=O)N[C@@H](CO)C(=O)N[C@@](C)(CCCCN)C(=O)N[C@@H](CCCNC(=N)N)C(=O)N[C@@H](CCCCN)C(=O)N[C@@H](CCCCN)C(N)=O)[C@@H](C)O [compound 20] (Ac-LEGREKVRA[Aib]I[Aib][Aib]EG[Nle]STWS[αMeK]RKK-NH2)
Emax: 97%
EC50: ≤ 10 nM and ≤ 5 nM and 1.8 nM

CCCC[C@H](NC(=O)CNC(=O)[C@H](CCC(=O)O)NC(=O)C(C)(C)NC(=O)C(C)(C)NC(=O)[C@@H](NC(=O)[C@H](CCC(N)=O)NC(=O)[C@H](C)NC(=O)[C@H](CCCNC(=N)N)NC(=O)[C@@H](NC(=O)[C@H](CCCCN)NC(=O)[C@H](CCC(=O)O)NC(=O)[C@H](CCCNC(=N)N)NC(=O)CNC(=O)[C@H](CCC(=O)O)NC(=O)[C@H](CC(C)C)NC(C)=O)C(C)C)[C@@H](C)CC)C(=O)N[C@@H](CO)C(=O)N[C@H](C(=O)N[C@@H](Cc1c[nH]c2ccccc12)C(=O)N[C@@H](CO)C(=O)NC(C)(C)C(=O)N[C@@H](CCCNC(=N)N)C(=O)N[C@@H](CCCCN)C(=O)N[C@@H](CCCCNC(C)=O)C(N)=O)[C@@H](C)O [compound 21] (Ac-LEGREKVRAQI[Aib][Aib]EG[Nle]STWS[Aib]RKK(Ac)-NH2)
Emax: 96%
EC50: 32.8 nM
